PubChem BioAssay (NCI)
“And” between values parts separate entries of the source, which are not always exact repeats. Equal entries are not always repeated.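 Growth conditions: 96-well plates. Treatment: test compound, 48 hours, 5 concentrations. Analysis: linear interpolation between bracketing concentrations; unreached endpoints set to highest concentration. GI50: concentration for 50% inhibition of growth. TGI is the concentration that stops growth completely.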

How the values were obtained:
Test in all cases: inhibition of tumour cell growth, NCI panel, 48 h
[1] = tested on: SK-MEL-5 melanoma
[2] = tested on: CAKI-1 renal
[3] = tested on: NCI-H226 lung
[4] = tested on: BT-549 breast
[5] = tested on: SW-620 colon
[6] = tested on: MDA-MB-435
[7] = tested on: HOP-92 NSCLC
[8] = tested on: SF-539 CNS
[9] = tested on: OVCAR-3 ovarian
[10] = tested on: NCI-H522 lung
[11] = tested on: HL-60(TB) leukemia
[12] = tested on: MCF7 breast
[13] = tested on: SF-268 CNS
[14] = tested on: HS 578T breast
[15] = tested on: NCI/ADR-RES ovarian
[16] = tested on: NCI-H460 lung
[17] = tested on: UACC-62 melanoma
[18] = tested on: OVCAR-5 ovarian
[19] = tested on: MOLT-4 leukemia
[20] = tested on: UO-31 renal
[21] = tested on: SK-OV-3 ovarian
[22] = tested on: MALME-3M melanoma
[23] = tested on: OVCAR-4 ovarian
[24] = tested on: M14 melanoma
[25] = tested on: MDA-MB-231 breast
[26] = tested on: T-47D breast

CC(C)C[C@H](NC(=O)[C@@H]1CCCCCCCCCCC(=O)N[C@@H](CC(=O)N2CCC[C@@H]2C2CCCC2)C(=O)N1)B(O)O
GI50 [1]: 1.77 nM | TGI [1]: 4.27 nM | GI50 [2]: 108 nM and 52.6 nM | TGI [2]: 3350 nM | GI50 [3]: 3.97 nM | TGI [3]: 17.2 nM | GI50 [4]: 1.4 nM | TGI [4]: 3.05 nM | GI50 [5]: 4.09 nM | TGI [5]: 42 nM and 25.4 nM | GI50 [6]: 2.57 nM | TGI [6]: 6.73 nM | GI50 [7]: 2.23 nM | TGI [7]: 6.22 nM | GI50 [8]: 1.8 nM | TGI [8]: 3.47 nM | GI50 [9]: 4.07 nM | TGI [9]: 16.8 nM | GI50 [10]: 2.21 nM | TGI [10]: 5.66 nM | GI50 [11]: 3.2 nM | TGI [11]: 1940 nM | GI50 [12]: 3.7 nM | GI50 [13]: 4.46 nM | TGI [13]: 46.6 nM | GI50 [14]: 4.22 nM | TGI [14]: 94 nM | GI50 [15]: 1970 nM | TGI [15]: 5900 nM | GI50 [16]: 8.62 nM | TGI [16]: 43.6 nM and 40.5 nM | GI50 [17]: 1.77 nM | TGI [17]: 3.56 nM | GI50 [18]: 2.89 nM | TGI [18]: 11.9 nM | GI50 [19]: 3.4 nM | TGI [19]: 8480 nM | GI50 [20]: 171 nM and 317 nM | TGI [20]: 466 nM and 1800 nM | GI50 [21]: 4.43 nM | TGI [21]: 23.6 nM and 15.9 nM | GI50 [22]: 1.64 nM | TGI [22]: 3.71 nM and 23.8 nM | GI50 [23]: 3.65 nM | TGI [23]: 16.9 nM | GI50 [24]: 5.5 nM | TGI [24]: 75.4 nM and 109 nM | GI50 [25]: 1.87 nM | TGI [25]: 3.81 nM | GI50 [26]: 1.99 nM
